Source: paper PMC10397409, “The action of physiological and synthetic steroids on the calcium channel CatSper in human sperm” (Frontiers in Cell and Developmental Biology, 2023)
“And” between values parts separate entries of the source, which are not always exact repeats. Equal values may be shown once. Read-outs that look alike come from different tables or passages of the source.

Assays:
[1] = target: T1, CatSper (Homo sapiens, UniProt Q7RTX7+Q86XQ3+Q8NEC5+Q96P56); test: Steroid-induced increase in [Ca2+]i in human sperm (Fluo-4 HTS assay, screen 1 activators); assay type: cell-based; conditions: for Emax: read-out: Max amplitude (%) (± SD)
T1 construct: Motile spermatozoa were selected by a ‘swim-up’ procedure; endogenous in cells; host or cells: motile human spermatozoa (swim-up) from healthy donors
Method: (§1) Briefly, motile spermatozoa were selected by swim-up and labeled with the fluorescent calcium indicator Fluo-4 a.m. to image changes in [Ca^2+]i. After centrifugation to remove excess dye, Fluo-4 AM loaded cells were distributed in a 384-wells plate to obtain ∼125,000 cells/well. After measuring basal fluorescence, a first injection of compounds was performed in order to evaluate their effect on [Ca^2+]i alone. This first screen is therefore considered as a screen to search for ‘activators’. Fluorescence was recorded for 12 min during which sperm cells were continuously exposed to compounds. P4 or PGE1 were then added in the same wells to evaluate whether the tested compounds can reduce the ligand-induced activation of CatSper. This second screen was therefore considered to be a search for CatSper ‘inhibitors’.
Human semen samples were collected from healthy donors by masturbation after a recommended sexual abstinence period of minimum 2 days. Semen samples were allowed to liquefy at 37°C for 15–30 min. […] Motile sperm were allowed to swim at 37°C for 1 hour. The supernatant was collected in 15 mL Falcon tubes and washed twice by centrifugation at 700 x g for 20 min. Sperm were supplemented with 3 mg/mL HSA.
20 μL of cells (corresponding to ∼125,000 cells) loaded with Fluo-4 a.m. were dispensed in a 384-wells plate (Corning, NY, United States) to allow fluorescence measurement. The dye was excited at 480 nm, and emission was recorded at 530 nm. The change in [Ca^2+]i was assessed simultaneously in all wells using a Functional Drug Screening System (FDSS/μCELL) (Hamamatsu Phototonics K.K., Yokohama, Japan) at 37°C. Basal fluorescence was first measured for 30 s. […] P4 and PGE1 were tested at a near-saturating concentration in the HTS in order to evaluate a potential additive or synergistic effect induced by the compounds. […] For alkalization-induced Ca^2+ measurement, NH4Cl was used as a positive control at a final concentration of 10 mM. […] The Prestwick library was tested in technical duplicate. Ca^2+ response curves were normalized using the following formula F−F0/F0×100 , where F 0 is the average of the basal fluorescence prior to the addition of the compound of interest and F corresponds to the fluorescence value at each time point. The ∆F/F0 of the vehicle control (DMSO) was subtracted from all the other values to adjust for dilution and pipetting artifacts. The values of all compounds were normalized to their respective controls.
Data are shown as mean ± standard deviation (SD) with “n” referring to the number of independent experiments performed using sperm samples from ≥3 different donors. Statistical analysis and fitting of dose-response relations were performed using GraphPad Prism 8.1.1 (Prism, La Jolla, United States). To generate sigmoidal curves, the concentrations were converted to their respective log values, and the data were normalized using the following formula: 100⋅x/Fmax , where Fmax is the maximum value of the positive control. A four-parameter Hill equation with a variable Hill coefficient was fitted to generate the EC02, EC50, and IC50. Statistical significance between control and treated conditions was evaluated using a one-way analysis of variance (ANOVA), followed by Dunnett´s test. A p-value <0.05 was considered significant.

[2] = target: T1, CatSper; test: Inhibition of P4-induced Ca2+ influx in human sperm (screen 2 inhibitors); assay type: cell-based
Method: as §1
Human semen samples were collected from healthy donors by masturbation after a recommended sexual abstinence period of minimum 2 days. Semen samples were allowed to liquefy at 37°C for 15–30 min. Motile spermatozoa were selected by a ‘swim-up’ procedure as previously described ([Strünker et al., 2011]). Briefly, 1 mL of semen was deposited in a 45°-inclined 50 mL Falcon tube with 4 mL of Human Tubular Fluid (HTF) medium containing: 93.8 mM NaCl, 4.7 mM KCl, 0.2 mM MgSO4, 0.37 mM KH2PO4, 2.04 mM CaCl2, 20.98 mM HEPES, 2.78 mM glucose, 21.4 mM Na-lactate, 4 mM NaHCO3, 0.33 mM Na-pyruvate, and the pH was adjusted to 7.35. Motile sperm were allowed to swim at 37°C for 1 hour. The supernatant was collected in 15 mL Falcon tubes and washed twice by centrifugation at 700 x g for 20 min. Sperm were supplemented with 3 mg/mL HSA. Written informed consent was obtained from all donors prior to donation and approved by the Cantonal Ethics Committee of the State of Geneva (CCER #14-147).
Cells were loaded with the fluorescent Ca^2+ indicator Fluo-4 AM at a final concentration of 2.5 µM for 30 min at 37°C. Excess dye was washed via centrifugation at 700 x g for 20 min and sperm were resuspended in HTF medium to obtain a final concentration of 6.25 x 10^6 cells/mL. 20 μL of cells (corresponding to ∼125,000 cells) loaded with Fluo-4 a.m. were dispensed in a 384-wells plate (Corning, NY, United States) to allow fluorescence measurement. The dye was excited at 480 nm, and emission was recorded at 530 nm. The change in [Ca^2+]i was assessed simultaneously in all wells using a Functional Drug Screening System (FDSS/μCELL) (Hamamatsu Phototonics K.K., Yokohama, Japan) at 37°C. Basal fluorescence was first measured for 30 s. […] P4 and PGE1 were tested at a near-saturating concentration in the HTS in order to evaluate a potential additive or synergistic effect induced by the compounds. Non-specific CatSper inhibitor MDL 12330A was used as a negative control at final concentration of 20 µM while DMSO was used as a vehicle control. For alkalization-induced Ca^2+ measurement, NH4Cl was used as a positive control at a final concentration of 10 mM. Fluorescence was recorded for a total of 16.5 min: 30 s before injection, 12 min after the first injection of the tested compounds, and 4 min after the second injection of either P4 or PGE1. The Prestwick library was tested in technical duplicate. Ca^2+ response curves were normalized using the following formula F−F0/F0×100 , where F 0 is the average of the basal fluorescence prior to the addition of the compound of interest and F corresponds to the fluorescence value at each time point. The ∆F/F0 of the vehicle control (DMSO) was subtracted from all the other values to adjust for dilution and pipetting artifacts. The values of all compounds were normalized to their respective controls.

[3] = maximal amplitude of steroid-induced [Ca2+]i increase, relative to P4, 3 independent experiments
[4] = pooled from 3 independent experiments, read-out: Mean EC50 µM (±SD)
[5] = P4-induced response, pooled from 3 independent experiments, read-out: Mean IC50 (P4) µM (±SD)
[6] = EC50 (±SD), increase in [Ca2+]i, dose-response 90 µM to 0.3 nM
[7] = Mean EC50 µM (±SD), pooled from 3 independent experiments
[8] = IC50 (±SD), inhibition of P4-induced Ca2+ response, dose-response 90 µM to 0.3 nM
[9] = Mean IC50 (P4) µM (±SD), P4-induced response, pooled from 3 independent experiments

C#C[C@]1(OC(C)=O)CC[C@H]2[C@@H]3CCC4=CC(=NO)CC[C@@H]4[C@H]3CC[C@@]21CC (mixture of isomers) [norgestimate]
Emax [1, 3]: 79%
EC50 [1, 4]: 0.918 µM
Max P4 inhibition (%) (± SD) ([2]; 3 independent experiments): 53 (±5) %
IC50 [2, 5]: 8.05 µM

C[C@]12CC[C@@H](O)C[C@H]1CC[C@@H]1[C@@H]2CC[C@]2(C)C(=O)CC[C@@H]12 [3-alpha-hydroxy-5-beta-androstan-17-one]
Max amplitude (%) (± SD) [1, 3]: 66 (±2) %
EC50 [1, 4]: 0.915 µM
Max P4 inhibition (%) (± SD) ([2]; 3 independent experiments): 66 (±2) %
IC50 [2, 5]: 1.52 µM

C[C@]12CC[C@H]3[C@@H](CCC4=CC(=O)CC[C@@]43C)[C@@H]1CC[C@@H]2C(=O)CO [Deoxycorticosterone]
EC50 [1, 6]: 0.302 µM
EC50 ([1]; EC50, increase in [Ca2+]i): 0.3 µM
EC50 [1, 7]: 0.295 µM
Emax [1]: 94%
reduction of the P4 response [2]: more than 86%
Max P4 inhibition (%) (± SD) ([2]; 3 independent experiments): 86 (±3) %
IC50 [2, 8]: 0.523 µM
IC50 ([2]; IC50, reduction of P4 response): 0.5 µM

CC(=O)[C@H]1CC[C@H]2[C@@H]3C[C@H](C)C4=CC(=O)CC[C@]4(C)[C@H]3[C@@H](O)C[C@]12C [Medrysone]
EC50 ([1]; increase in [Ca2+]i, dose-response 90 µM to 0.3 nM, read-out: EC50 (±SD)): 0.24 µM
Emax [1, 3]: 104%
EC50 [1, 4]: 0.23 µM
Max P4 inhibition (%) (± SD) ([2]; 3 independent experiments): 83 (±4) %
IC50 [2, 5]: 0.471 µM
IC50 ([2]; inhibition of P4-induced Ca2+ response, dose-response 90 µM to 0.3 nM, read-out: IC50 (±SD)): 0.569 µM

C[C@]12CC[C@H]3[C@@H](CCC4=CC(=O)CC[C@@H]43)[C@@H]1CC[C@@H]2O [Nandrolone]
EC02 compared with reported maximum concentration in blood serum [1]: EC02 below the reported maximum concentration found in blood serum
EC50 [1, 6]: 0.306 µM
increase in [Ca2+]i ([1]; at low concentrations in the nanomolar range): 30%
Emax [1]: 98%
Max P4 inhibition (%) (± SD) ([2]; 3 independent experiments): 85 (±1) %
IC50 [2, 8]: 0.711 µM
IC50 [2, 9]: 0.729 µM

CC(=O)C1CCC2C3CC[C@H]4CC(=O)CC[C@]4(C)C3CC[C@]12C (some centres unmarked) [S46]
EC50 ([1]; EC50, increase in [Ca2+]i in human sperm): 0.032 µM and 0.073 µM
Emax [1]: 141%
Max P4 inhibition (%) (± SD) ([2]; 3 independent experiments): 90 (±6) %
IC50 ([2]; IC50, decrease of response to P4): 0.046 µM and 0.138 µM

CC12CCC(O)CC1CCC1C2CCC2(C)C1CCC2(C)O (centres unmarked) [S64]
EC50 [1, 7]: 0.265 µM
Emax [1]: 65%
Max P4 inhibition (%) (± SD) ([2]; 3 independent experiments): 55 (±1) %
IC50 [2, 9]: 0.682 µM

CC12CCC3C(CC[C@H]4CC(=O)CCC34C)C1CCC2O (some centres unmarked) [S65]
Emax [1]: 91%
Max P4 inhibition (%) (± SD) ([2]; 3 independent experiments): 95 (±1) %

CC12CCC(O)CC1=CCC1C2CCC2(C)C(C(=O)O)CCC12 (centres unmarked) [S67]
EC50 [1, 7]: 0.108 µM
Emax [1]: 80%
Max P4 inhibition (%) (± SD) ([2]; 3 independent experiments): 86 (±3) %
IC50 [2, 9]: 0.253 µM

C[C@]12CC[C@H]3[C@@H](CC[C@H]4C[C@H](O)CC[C@@H]43)[C@@H]1CCC2=O [S85]
EC50 [1, 7]: 0.259 µM
Emax [1]: 99%
Max P4 inhibition (%) (± SD) ([2]; 3 independent experiments): 96 (±2) %
IC50 [2, 9]: 0.495 µM

C[C@]12CC[C@H]3[C@@H](CCC4=CC(=O)CC[C@@]43C)[C@@H]1CC[C@@H]2O [Testosterone]
EC50 [1, 6]: 0.407 µM
Emax [1]: 87%
Max P4 inhibition (%) (± SD) ([2]; 3 independent experiments): 81 (±6) %
IC50 [2, 9]: 1.09 µM

C[C@]12CCC(=O)C=C1CC[C@@H]1[C@@H]2C(=O)C[C@]2(C)C(=O)CC[C@@H]12 [adrenosterone]
Max amplitude (%) (± SD) [1, 3]: 26 (±2) %
EC50 [1, 4]: 14.5 µM
Max P4 inhibition (%) (± SD) ([2]; 3 independent experiments): 24 (±3) %
IC50 [2, 5]: 30.8 µM

C[C@]12CCC(=O)C=C1C=C[C@@H]1[C@@H]2CC[C@@]2(C)[C@H]1CC[C@@]21CCC(=O)O1 [canrenone]
Emax [1, 3]: 69%
EC50 [1, 4]: 7.51 µM
Max P4 inhibition (%) (± SD) ([2]; 3 independent experiments): 49 (±1) %

C[C@]12C[C@H](O)[C@H]3[C@@H](CCC4=CC(=O)CC[C@@]43C)[C@@H]1CC[C@@H]2C(=O)CO [corticosterone]
Emax [1, 3]: 55%
EC50 [1, 4]: 2.94 µM
Max P4 inhibition (%) (± SD) ([2]; 3 independent experiments): 49 (±5) %
IC50 [2, 5]: 6.1 µM

C[C@]12CC[C@H]3C(=CCc4cc(O)ccc43)[C@@H]1CCC2=O [equilin]
EC50 [1]: 0.999 µM
Emax [1]: 62%
IC50 [2]: 1.85 µM
Max P4 inhibition (%) (± SD) [2]: 50 (±11) %

C[C@]12CC[C@@H]3c4ccc(O)cc4CC[C@H]3[C@@H]1CC[C@@H]2O [estradiol-17 beta]
Max amplitude (%) (± SD) [1, 3]: 75 (±8) %
EC50 [1, 4]: 0.761 µM
Max P4 inhibition (%) (± SD) ([2]; 3 independent experiments): 67 (±3) %
IC50 [2, 5]: 1.45 µM

C[C@]12CC[C@@H]3c4ccc(O)cc4CC[C@H]3[C@@H]1CCC2=O [estrone]
EC50 [1, 7]: 0.267 µM
Emax [1, 3]: 49%
Max P4 inhibition (%) (± SD) ([2]; 3 independent experiments): 67 (±2) %
IC50 [2, 9]: 0.56 µM
